Results taken from patent US11377469B2, “CD73 inhibitors” (ORIC Pharmaceuticals, Inc., priority 2017, dated 2022).

These compounds were tested against CD73 (Homo sapiens (Human), UniProt P21589) (assay: Biochemical Assay (CD73 inhibition, AMP hydrolysis, Malachite Green readout)). Settings: CD73 0.3208 nM, AMP 15 μM, Tris-HCl pH 7.4, Malachite Green absorbance.
CD73, sequence (P21589 27-574): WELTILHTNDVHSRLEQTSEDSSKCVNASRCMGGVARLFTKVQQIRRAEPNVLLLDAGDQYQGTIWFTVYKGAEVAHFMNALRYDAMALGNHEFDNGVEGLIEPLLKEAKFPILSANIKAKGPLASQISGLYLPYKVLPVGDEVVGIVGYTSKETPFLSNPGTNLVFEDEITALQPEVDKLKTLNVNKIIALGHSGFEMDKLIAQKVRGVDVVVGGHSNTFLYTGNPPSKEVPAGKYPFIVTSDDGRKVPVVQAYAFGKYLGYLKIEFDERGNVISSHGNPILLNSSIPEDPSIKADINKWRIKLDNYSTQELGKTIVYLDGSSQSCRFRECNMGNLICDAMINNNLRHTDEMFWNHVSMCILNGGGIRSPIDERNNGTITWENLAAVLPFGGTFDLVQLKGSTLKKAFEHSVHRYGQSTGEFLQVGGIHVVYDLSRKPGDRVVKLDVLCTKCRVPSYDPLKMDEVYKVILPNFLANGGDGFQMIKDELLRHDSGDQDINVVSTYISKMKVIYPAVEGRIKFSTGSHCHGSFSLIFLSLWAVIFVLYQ
Experimental: Example A1: Biochemical Assay
Assay Reaction Conditions
• Assay Volume: 70 μl • Reaction Volume: 50 μl • CD73: 0.3208 nM • AMP: 15 μM • Assay Buffer: 2 5 mM Tris-HCL, pH 7.4, 0.01% Brij-35, 0.01% BSA, 5 mM MgCl2 Assay Procedure:
Made dose titration of testing compounds in assay buffer, 10 points ½ log titrations in duplicates starting at 100 μM.
Added 25 μl of CD73 to each well for a final concentration of 320 pM.
Incubated at RT for 15 min.
Added 25 μl of AMP to each well for a final concentration of 15 μM.
Incubated at RT for 10 min.
Added 10 μl of Malachite Green Reagent A, incubate at RT for 10 min.
Added 10 μl of Malachite Green Reagent B, incubate at RT for 45 min. […]
The ability of the compounds disclosed herein to inhibit CD73 activity was quantified and the respective IC50 values were determined. Table 1 provides the biochemical IC50 values of compounds disclosed herein.
For `O=C(CP(=O)(O)O)OC[C@H]1O[C@@H](n2ncc3c(NCc4ccccc4Cl)nc(Cl)nc32)[C@H](O)[C@@H]1O` [Example 1, (2-(((2R,3S,4R,5R)-5-(6-Chloro-4-((2-chlorobenzyl)amino)-1H-pyrazolo[3,4-d]pyrimidin-1-yl)-3,4-dihydroxytetrahydrofuran-2-yl)methoxy)-2-oxoethyl)phosphonic acid], the IC50 was no more than 500 nM. Work on `O=C(CP(=O)(O)O)NC[C@H]1O[C@@H](n2ncc3c(NCc4ccccc4Cl)nc(Cl)nc32)[C@H](O)[C@@H]1O` [Example 2, (2-((((2R,3S,4R,5R)-5-(6-Chloro-4-((2-chlorobenzyl)amino)-1H-pyrazolo[3,4-d]pyrimidin-1-yl)-3,4-dihydroxytetrahydrofuran-2-yl)methyl)amino)-2-oxoethyl)phosphonic acid] yielded an IC50 greater than 1000 nM. `O=P(O)(O)CS(=O)(=O)NC[C@H]1O[C@@H](n2ncc3c(NCc4ccccc4Cl)nc(Cl)nc32)[C@H](O)[C@@H]1O` [Example 3, ((N-(((2R,3S,4R,5R)-5-(6-Chloro-4-((2-chlorobenzyl)amino)-1H-pyrazolo[3,4-d]pyrimidin-1-yl)-3,4-dihydroxytetrahydrofuran-2-yl)methyl)sulfamoyl)methyl)phosphonic acid] was tested, and the IC50 was no more than 500 nM. `CN(c1nc(Cl)nc2c1cnn2[C@@H]1O[C@H](CCP(=O)(O)O)[C@@H](O)[C@H]1O)[C@H]1CCc2ccccc21` [Example 4, (2-((2R,3S,4R,5R)-5-(6-Chloro-4-(((S)-2,3-dihydro-1H-inden-1-yl)(methyl)amino)-1H-pyrazolo[3,4-d]pyrimidin-1-yl)-3,4-dihydroxytetrahydrofuran-2-yl)ethyl)phosphonic acid] showed an IC50 greater than 1000 nM. For `CN(Cc1ccccc1)c1nc(Cl)nc2c1cnn2[C@@H]1O[C@H](COCCP(=O)(O)O)[C@@H](O)[C@H]1O` [Example 5, (2-(((2R,3S,4R,5R)-5-(4-(Benzyl(methyl)amino)-6-chloro-1H-pyrazolo[3,4-d]pyrimidin-1-yl)-3,4-dihydroxytetrahydrofuran-2-yl)methoxy)ethyl)phosphonic acid], the IC50 was greater than 1000 nM. Work on `CN(Cc1ccccc1)c1nc(Cl)nc2c1cnn2[C@H]1O[C@H](COCCP(=O)(O)O)[C@@H](O)[C@H]1O` [Example 6, (2-(((2R,3S,4R,5S)-5-(4-(Benzyl(methyl)amino)-6-chloro-1H-pyrazolo[3,4-d]pyrimidin-1-yl)-3,4-dihydroxytetrahydrofuran-2-yl)methoxy)ethyl)phosphonic acid] yielded an IC50 greater than 1000 nM. With `CN(Cc1ccccc1)c1nc(Cl)nc2c1cnn2[C@@H]1O[C@H](COCP(=O)(O)O)[C@@H](O)[C@H]1O` [Example 7, ((((2R,3S,4R,5R)-5-(4-(Benzyl(methyl)amino)-6-chloro-1H-pyrazolo[3,4-d]pyrimidin-1-yl)-3,4-dihydroxytetrahydrofuran-2-yl)methoxy)methyl)phosphonic acid] the IC50 was no more than 500 nM. Work on `CN(c1nc(Cl)nc2c1cnn2[C@@H]1O[C@H](COC(=O)CP(=O)(O)O)[C@@H](O)[C@H]1O)[C@H]1CCc2ccccc21` [Example 8, (2-(((2R,3S,4R,5R)-5-(6-Chloro-4-(((S)-2,3-dihydro-1H-inden-1-yl)(methyl)amino)-1H-pyrazolo[3,4-d]pyrimidin-1-yl)-3,4-dihydroxytetrahydrofuran-2-yl)methoxy)-2-oxoethyl)phosphonic acid] yielded an IC50 of 500 to 1000 nM. `CN(C[C@H]1O[C@@H](n2ncc3c(NCc4ccccc4Cl)nc(Cl)nc32)[C@H](O)[C@@H]1O)C(=O)CP(=O)(O)O` [Example 9, (2-((((2R,3S,4R,5R)-5-(6-chloro-4-((2-chlorobenzyl)amino)-1H-pyrazolo[3,4-d]pyrimidin-1-yl)-3,4-dihydroxytetrahydrofuran-2-yl)methyl)(methyl)amino)-2-oxoethyl)phosphonic acid] gave an IC50 of no more than 500 nM. For `O=P(O)(O)COC[C@H]1O[C@@H](n2ncc3c(NCc4ccccc4Cl)nc(Cl)nc32)[C@H](O)[C@@H]1O` [Example 10, ((((2R,3S,4R,5R)-5-(6-chloro-4-((2-chlorobenzyl)amino)-1H-pyrazolo[3,4-d]pyrimidin-1-yl)-3,4-dihydroxytetrahydrofuran-2-yl)methoxy)methyl)phosphonic acid], the IC50 was no more than 500 nM.
